Test results reported in PMC10055976, “Selection and evolution of disulfide-rich peptides via cellular protein quality control” (Chemical Science, 2023).
Where a SMILES comes first, the peptide text is derived from it. Bridges are numbered along the chain shown (N, C = ends).

Columns and labels:
[1] = Solution NMR structure and disulfide pairing of drp1; assay type: physicochemical; conditions: oxidized drp1, ~1 mM, 80% perdeuterated acetonitrile / 20% H2O, 302 K
Excerpt: We then deep-sequenced the DRPs enriched in P9, and a total of ∼1404 different sequences with the expected cysteine patterns were obtained (3 different scaffolds: 256, 742 and 406, respectively; dataset S3 and Fig. 4a). Sequences with stop codon(s) are very rare compared to that found in the previous selection (dataset S4), further confirming the success of the second-generation PQC-select. […] To chemically examine the foldability of the selected DRPs, four sequences were randomly selected for synthesis and oxidation. All of them can be specifically oxidized to a major product as determined using HPLC (Fig. 4b and S7 ^†). […] The disulfide pairing of drp1 was clearly shown by the ^1H–^1H NOESY spectra (Fig. S10 ^†). […]
without target protein were then added to half of the blocked phage respectively and incubated for 30 min on a rotating wheel. […]
Reduced peptides (drp1 and 4, 10 μM) was dissolved in 100 mM phosphate buffer (pH 7.4) containing 0.2 mM GSSG. […] After that, oxidative folding of all the peptides was further analysed using HPLC and mass spectrometry .
Drp1 were dissolved in 80% perdeuterated acetonitrile and 20% H2O at a final concentration of about 1 mM . […] Two dimensional (2D) 1H, 15N/13C HSQC spectra were recorded to obtain chemical shifts of heavy atoms […]
in backbone and side-chains. […] The NMR data were processed using NMRPipe/NMRDraw and analyzed using NMRFAM-SPARKY5. […]

[2] = biological target: T1, Keap1 kelch domain protein (Residues 321-609) (Homo sapiens, UniProt Q14145); test: Surface plasmon resonance (SPR) assay of oxidized peptides; assay type: binding; conditions: for Binding affinity to Keap1 (in words): major oxidized product, SPR, preliminary; for Binding affinity to Keap1 (in words) / SPR sensorgrams: binding of Keap1 (in words): 25 °C, pH 7.4; for SPR sensorgrams: binding of Keap1 (in words): oxidized peptide, HPLC purity >95%
T1 construct: Keap1 kelch domain protein (Residues 321-609, Homo Sapiens); made in house
T1 sequence (Q14145 321-609): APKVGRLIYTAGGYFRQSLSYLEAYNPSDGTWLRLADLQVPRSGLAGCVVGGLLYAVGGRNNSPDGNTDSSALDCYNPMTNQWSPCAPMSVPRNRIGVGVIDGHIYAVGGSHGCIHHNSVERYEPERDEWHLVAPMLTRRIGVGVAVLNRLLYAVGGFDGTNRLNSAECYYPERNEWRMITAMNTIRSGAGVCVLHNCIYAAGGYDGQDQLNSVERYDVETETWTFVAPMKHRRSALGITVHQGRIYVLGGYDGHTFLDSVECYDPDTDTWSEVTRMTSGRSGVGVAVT

[3] = Oxidative folding of peptides (HPLC); assay type: physicochemical; conditions: drp1 and drp4: 10 μM, 100 mM phosphate pH 7.4, 0.2 mM GSSG, drp2, drp3, k-1, k-2: 10 μM, same buffer with 6 M Gu·HCl and 0.2 mM GSSG, overnight, 37 °C
Excerpt: We then deep-sequenced the DRPs enriched in P9, and a total of ∼1404 different sequences with the expected cysteine patterns were obtained (3 different scaffolds: 256, 742 and 406, respectively; dataset S3 and Fig. 4a). Sequences with stop codon(s) are very rare compared to that found in the previous selection (dataset S4), further confirming the success of the second-generation PQC-select. […] To chemically examine the foldability of the selected DRPs, four sequences were randomly selected for synthesis and oxidation. All of them can be specifically oxidized to a major product as determined using HPLC (Fig. 4b and S7 ^†). […] The disulfide pairing of drp1 was clearly shown by the ^1H–^1H NOESY spectra (Fig. S10 ^†).
Fig. 4 Identification and application of new DRPs selected from the second-generation PQC-select. (a) Top 5 enriched sequences for the three different scaffolds obtained from the second-generation PQC-select, scaffold M-2 (top), scaffold M-6 (middle) and scaffold M-9 (bottom). (b) HPLC chromatograms showing the oxidation of drp1, drp2, drp3 and drp4 in phosphate buffers (pH 7.4, 100 mM) containing 0.2 mM GSSG or 6 M Gu·HCl and 0.2 mM GSSG. […]
Reduced peptides (drp1 and 4, 10 μM) was dissolved in 100 mM phosphate buffer (pH 7.4) containing 0.2 mM GSSG. […] After that, oxidative folding of all the peptides was further analysed using HPLC and mass spectrometry . […]

Row | Compound | Folding in solution by 1H–1H TOCSY (in words) [1] | 3D structure and disulfide pairing by NMR (in words) ([1]; PDB 8GUC, 15 lowest-energy structures) | Binding affinity to Keap1 (in words) [2] | SPR sensorgrams: binding of Keap1 (in words) ([2]; 50-3200 nM) | Kd ([2]; oxidized product (major), Biacore T200, 25 °C, biotinylated Keap1 on CAP chip, 10 mM phosphate pH 7.4, 50 μM EDTA, 0.05% Tween 20, 50-3200 nM, multiple cycle kinetics, 1:1 binding model, read-out: KD (equilibrium dissociation constant, SPR)) [nM] | kon ([2]; oxidized product, Biacore T200, 25 °C, 10 mM phosphate pH 7.4, 50 μM EDTA, 0.05% Tween 20, multiple cycle kinetics, 1:1 binding model, local fit, read-out: ka (association rate constant)) [M⁻¹ s⁻¹] | koff ([2]; oxidized product, Biacore T200, 25 °C, 10 mM phosphate pH 7.4, 50 μM EDTA, 0.05% Tween 20, multiple cycle kinetics, 1:1 binding model, local fit, read-out: kd (dissociation rate constant)) [s⁻¹] | Oxidative folding outcome (in words) [3]
1 | H-GCPPCRFTLSPWVSPCSNPHWPIRAMCNDSVPCPPC-NH2 (also: bicyclic or more (positions not given here)) [drp1, CPPC disulfide-rich peptide selected by PQC-select; PDB 8GUC] | well-folded in solution | irregular but rigid loops and a short α-helix constrained through three disulfide bonds with the two CPPC motifs paired parallelly |  |  |  |  |  | 
2 | CC[C@H](C)[C@@H]1NC(=O)[C@@H]2CCCN2C(=O)[C@H](CCCNC(=N)N)NC(=O)[C@H](CCCNC(=N)N)NC(=O)[C@H]([C@@H](C)O)NC(=O)CNC(=O)[C@H](CCC(N)=O)NC(=O)[C@@H]2CSSC[C@H](NC(=O)[C@H](CCSC)NC(=O)[C@H](C)NC(=O)[C@H](CCCNC(=N)N)NC1=O)C(=O)N[C@@H](CC(N)=O)C(=O)N[C@@H](CC(=O)O)C(=O)N[C@@H](CO)C(=O)N[C@@H](C(C)C)C(=O)N1CCC[C@H]1C(=O)N[C@H]1CSSC[C@H](NC(=O)[C@@H](N)Cc3c[nH]c4ccccc34)C(=O)N3CCC[C@H]3C(=O)N3CCC[C@H]3C(=O)N[C@@H](CSSC[C@@H](C(N)=O)NC(=O)[C@@H]3CCCN3C(=O)[C@@H]3CCCN3C1=O)C(=O)N[C@@H](CCCNC(=N)N)C(=O)N[C@@H](Cc1ccccc1)C(=O)N[C@@H]([C@@H](C)O)C(=O)N[C@@H](CC(C)C)C(=O)N[C@@H](CO)C(=O)N[C@@H](CCC(=O)O)C(=O)N[C@@H](CCC(=O)O)C(=O)N[C@@H]([C@@H](C)O)C(=O)NCC(=O)N[C@@H](CCC(=O)O)C(=O)N2 [k-1] (H-WCPPCRFTLSEETGECQGTRRPIRAMCNDSVPCPPC-NH2; disulfide 2-33, 5-36, 16-27 (inferred)) |  |  | submicromolar range | in a concentration-dependent manner | 349 | 54800 | 0.0191 | can be oxidized to a major product
3 | H-WCPPCRFTLSPETGECQGTKRPIRAMCNDSVPCPPC-NH2 (also: bicyclic or more (positions not given here)) [k-2] |  |  | submicromolar range | in a concentration-dependent manner |  |  |  | can be oxidized to a major product
